In patent publication US8802664B2 (Bioproject, priority 2010, dated 2014):

Target: T1, human H4 receptor (Homo sapiens, UniProt Q9H3N8)
T1 construct: expressed in transfected cells
Test: [3H]Histamine binding on membranes of CHO cells stably expressing human H4 receptor
Conditions: not given
Protocol: CHO cells stably expressing human H4 receptor were grown until sub-confluence and centrifuged at 300 g 15 minutes at 4° C. Pellets were resuspended in buffer I Tris-HCl 50 mM, MgCl2 10 mM, NaCl 140 mM, pH=7.4 supplemented by a 1/50 dilution of a mix of protease inhibitors. The obtained suspension is stirred gently and submitted to a […] exerted through a syringe. The cell lysate is then centrifuged at 300 g 15 minutes at 4° C. in order to eliminate nucleus and cell scraps. The obtained supernatant was then centrifuged at 48000 g for 30 minutes at 4° C. The final pellet is resuspended in buffer I with a potter homogenizer. Aliquots were frozen in liquid nitrogen and stored until use at −80° C. Protein content is measured by the Bradford method.
Defreezed membranes were diluted at a final concentration of 20 μg/180 μL/well in a binding buffer containing 50 mM Tris/HCl, 0.5 mM EDTA, pH=7.4 and distributed in 96 well polystyrene microplate. [^3H] […] Non specific binding was estimated in the presence of 10 μM BP1.2404 (JNJ 7777120). The reaction was terminated by filtration through GF/B filters pre-soaked 2 hours at 4° C. in […]. Filters were rinsed 3 times with 250 μl of ice cold incubation binding buffer.
The filter-bound radioactivity was measured in a liquid scintillation counter Microbeta TRILUX® with 50 μl of scintillation fluid.
The hH4 binding investigated by use of [^3H]

T1 sequence (Q9H3N8 whole entry): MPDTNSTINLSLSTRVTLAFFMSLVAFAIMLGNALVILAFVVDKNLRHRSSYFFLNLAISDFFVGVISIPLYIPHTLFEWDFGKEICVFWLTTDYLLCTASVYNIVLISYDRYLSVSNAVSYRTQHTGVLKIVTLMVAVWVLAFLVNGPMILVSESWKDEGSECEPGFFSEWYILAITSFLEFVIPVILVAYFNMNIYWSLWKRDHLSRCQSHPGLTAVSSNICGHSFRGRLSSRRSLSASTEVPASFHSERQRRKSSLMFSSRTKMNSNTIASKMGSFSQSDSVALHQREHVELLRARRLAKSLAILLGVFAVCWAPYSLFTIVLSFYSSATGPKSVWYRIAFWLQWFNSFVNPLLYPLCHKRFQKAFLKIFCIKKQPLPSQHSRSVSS

Row | SMILES | Ki or IC50 activity class
1 | CCOC(=O)c1cccc(C(OC2CCN(C)CC2)c2nc3ccccc3s2)c1 (stereo not shown) [Example 206, 3-[benzothiazol-2-yl(1-methylpiperidin-4-yloxy)methyl]benzoic acid ethyl ester] | < 300 nM
2 | CN1CCC(OC(c2nc3cc(F)ccc3[nH]2)c2cc(OC(F)(F)F)ccc2F)CC1 (stereo not shown) [Example 509] | < 30 nM
3 | CN1CCC(OC(c2cccc(OCCCC(F)(F)F)c2)c2nc3ccccc3s2)CC1 (stereo not shown) [Example 169, 2-{(1-methylpiperidin-4-yloxy)[3-(4,4,4-trifluoro-butoxy)phenyl]methyl}benzothiazole] | < 1000 nM
4 | CN1CCC(OC(c2cccc(C#CCN3C(=O)c4ccccc4C3=O)c2)c2nc3ccccc3[nH]2)CC1 (stereo not shown) [Example 189, 2-(3-{3-[(1H-benzimidazol-2-yl)(1-methylpiperidin-4-yloxy)methyl]phenyl}prop-2-ynyl)isoindole-1,3-dione] | < 300 nM
5 | CCCCc1cccc(C(OC2CCN(C)CC2)c2nc3ccccc3s2)c1 (stereo not shown) [Example 80, 2-[(3-butylphenyl)(1-methylpiperidin-4-yloxy)methyl]benzothiazole] | < 300 nM
6 | CN1CCC(OC(c2cccc(OCCCCO)c2)c2nc3ccccc3s2)CC1 (stereo not shown) [Example 266, 4-{3-[benzothiazol-2-yl(1-methylpiperidin-4-yloxy)methyl]phenoxy}butan-1-ol] | < 300 nM
7 | CN1CCC(OC(c2cccc(-c3ccccc3F)c2)c2nc3ccccc3s2)CC1 (stereo not shown) [Example 137, 2-[(2′-fluorobiphenyl-3-yl)(1-methylpiperidin-4-yloxy)methyl]benzothiazole] | < 300 nM
8 | CN1CCC(NC(c2cccc(OCc3cc(F)ccc3F)c2)c2nc3ccccc3[nH]2)CC1 (stereo not shown) [Example 149, {(1H-benzimidazol-2-yl)[3-(2,5-difluoro-benzyloxy)phenyl]methyl}(1-methylpiperidin-4-yl)amine] | < 30 nM
9 | CN1CCC(OC(c2cccc(C#CCCN)c2)c2nc3ccccc3s2)CC1 (stereo not shown) [Example 282, 4-{3-[benzothiazol-2-yl(1-methylpiperidin-4-yloxy)methyl]phenyl}but-3-ynylamine] | < 1000 nM
10 | CN1CCC(OC(c2cccc(F)c2)c2nc3ccccc3s2)CC1 (stereo not shown) [Example 5] | < 300 nM
11 | CN1CCC(OC(c2nc3ccccc3[nH]2)c2ccccc2O)CC1 (single isomer, unassigned) [Example 627, 2-[(1H-benzimidazol-2-yl)(1-methylpiperidin-4-yloxy)methyl]phenol] | < 30 nM
12 | CN1CCC(OC(c2nc3ccccc3[nH]2)c2cc(OCCF)ccc2F)CC1 (stereo not shown) [Example 489] | < 30 nM
13 | CN1CCC(OC(c2cccc(CCCCNC(=N)N)c2)c2nc3ccccc3s2)CC1 (stereo not shown) [Example 374, N-(4-{3-[benzothiazol-2-yl(1-methylpiperidin-4-yloxy)methyl]phenyl}butyl)guanidine] | < 30 nM
14 | CN1CCC(OC(c2cccc(CCc3c[nH]cn3)c2)c2nc3ccccc3[nH]2)CC1 (stereo not shown) [Example 412, 2-[{3-[2-(1H-imidazol-4-yl)ethyl]phenyl}(1-methylpiperidin-4-yloxy)methyl]-1H-benzimidazole] | < 1000 nM
15 | CN1CCC(OC(c2cccc(OCCCCN3CCOCC3)c2)c2nc3ccccc3[nH]2)CC1 (stereo not shown) [Example 332, 2-{(1-methylpiperidin-4-yloxy)[3-(4-morpholin-4-yl-butoxy)phenyl]methyl}-1H-benzimidazole] | < 1000 nM
16 | CNCCOc1cccc(C(OC2CCN(C)CC2)c2nc3ccccc3s2)c1 (stereo not shown) [Example 279, (2-{3-[benzothiazol-2-yl(1-methylpiperidin-4-yloxy)methyl]phenoxy}ethyl)methyl-amine] | < 1000 nM
17 | CN1CCC(OC(c2cccc(SCC3(CCO)CC3)c2)c2nc3ccccc3s2)CC1 (stereo not shown) [Example 268, 2-(1-{3-[benzothiazol-2-yl(1-methylpiperidin-4-yloxy)methyl]phenylsulfanylmethyl}cyclopropyl)ethanol] | < 300 nM
18 | CN1CCC(OC(c2nc3ccccc3[nH]2)c2cc(C#CCCCN)ccc2F)CC1 (stereo not shown) [Example 442] | < 30 nM
19 | CN1CCC(OC(c2cccc(CCCCCCNC(=N)N)c2)c2nc3ccccc3s2)CC1 (stereo not shown) [Example 363, N-(6-{3-[benzothiazol-2-yl(1-methylpiperidin-4-yloxy)methyl]phenyl}hexyl)guanidine] | < 300 nM
20 | CN1CCC(OC(c2cccc(OC3CCNC3)c2)c2nc3ccccc3s2)CC1 (stereo not shown) [Example 382, 2-{(1-methylpiperidin-4-yloxy)[3-(pyrrolidin-3-yloxy)phenyl]methyl}benzothiazole] | < 30 nM

Row | SMILES | Ki or IC50 activity class
21 | CN1CCC(COC(c2cccc(Br)c2)c2nc3ccccc3s2)C1 (single isomer, unassigned) [Example 464] | < 30 nM
22 | CN1CCC(OC(c2nc3ccccc3s2)c2ccccc2F)CC1 (stereo not shown) [Example 6, 2-[(2-fluorophenyl)(1-methylpiperidin-4-yloxy)methyl]benzothiazole] | < 300 nM
23 | CN1CCC(OC(c2cccc(C#CC3CCNCC3)c2)c2nc3ccccc3[nH]2)CC1 (stereo not shown) [Example 376, 2-[(1-methylpiperidin-4-yloxy)(3-piperidin-4-ylethynyl-phenyl)methyl]-1H-benzimidazole] | < 1000 nM
24 | CN1CCC(OC(c2cccc(Br)c2)c2nc3ccccc3[nH]2)CC1 (stereo not shown) [Example 78, 2-[(3-bromophenyl)(1-methylpiperidin-4-yloxy)methyl]-1H-benzimidazole] | < 300 nM
25 | CN1CCC(OC(c2cccc(N3CCC(=O)C3)c2)c2nc3ccccc3s2)CC1 (stereo not shown) [Example 443, 1-{3-[benzothiazol-2-yl(1-methylpiperidin-4-yloxy)methyl]phenyl}pyrrolidin-3-one] | < 30 nM
26 | CN1CCC(NC(c2ccccc2)c2nc3ccccc3s2)CC1 (stereo not shown) [Example 9, (benzothiazol-2-yl-phenylmethyl)(1-methylpiperidin-4-yl)amine] | < 30 nM
27 | CN1CCC(OC(c2cccc(SCCN)c2)c2nc3cc(F)ccc3[nH]2)CC1 (stereo not shown) [Example 428, 2-{3-[(5-fluoro-1H-benzimidazol-2-yl)(1-methylpiperidin-4-yloxy)methyl]phenylsulfanyl}ethylamine] | < 300 nM
28 | C=Cc1cccc(C(OC2CCN(C)CC2)c2nc3ccccc3[nH]2)c1 (stereo not shown) [Example 245, 2-[(1-methylpiperidin-4-yloxy)(3-vinyl-phenyl)methyl]-1H-benzimidazole] | < 300 nM
29 | CN1CCC(OC(c2ccsc2)c2nc3ccccc3[nH]2)CC1 (stereo not shown) [Example 539] | < 300 nM
30 | CN1CCC(OC(c2cccc(OCCF)c2)c2nc3ccccc3s2)CC1 (stereo not shown) [Example 163, 2-[[3-(2-fluoroethoxy)phenyl](1-methylpiperidin-4-yloxy)methyl]benzothiazole] | < 30 nM
31 | CN1CCC(OC(c2cccc(C=CCCCO)c2)c2nc3ccccc3s2)CC1 (stereo not shown) [Example 390, 5-{3-[(benzothiazol-2-yl)(1-methylpiperidin-4-yloxy)methyl]phenyl}pent-4-en-1-ol] | < 30 nM
32 | Cc1ccc(C(OC2CCN(C)CC2)c2nc3ccccc3[nH]2)c(Cl)c1 (stereo not shown) [Example 213, 2-[(2-chloro-4-methylphenyl)(1-methylpiperidin-4-yloxy)methyl]-1H-benzimidazole] | < 300 nM
33 | Cc1ccc(C(OC2CCN(C)CC2)c2nc3ccccc3[nH]2)c(F)c1 (stereo not shown) [Example 513] | < 30 nM
34 | CCCCOc1cccc(C(NC2CCN(C)CC2)c2nc3ccccc3s2)c1 (stereo not shown) [Example 91, [benzothiazol-2-yl(3-butoxyphenyl)methyl](1-methylpiperidin-4-yl)amine] | < 30 nM
35 | CN1CCC(OC(c2cccc(-c3c[nH]nn3)c2)c2nc3ccccc3[nH]2)CC1 (stereo not shown) [Example 198, 2-{(1-methylpiperidin-4-yloxy)[3-(1H-[1,2,3]triazol-4-yl)phenyl]methyl}-1H-benzimidazole] | < 30 nM
36 | CN1CCC(OC(c2cccc(N3CCCC3CO)c2)c2nc3ccccc3s2)CC1 (stereo not shown) [Example 324, (1-{3-[benzothiazol-2-yl(1-methylpiperidin-4-yloxy)methyl]phenyl}pyrrolidin-2-yl)methanol] | < 300 nM
37 | CN1CCC(OC(c2cccc(SCCCCN)c2)c2nc3cc(F)c(F)c(F)c3[nH]2)CC1 (stereo not shown) [Example 493] | < 30 nM
38 | CN1CCC(OC(c2nc3ccccc3[nH]2)c2cc(C#CCCCCN)ccc2F)CC1 (stereo not shown) [Example 557, 6-{3-[(1H-benzimidazol-2-yl)(1-methylpiperidin-4-yloxy)methyl]-4-fluorophenyl}hex-5-ynylamine] | < 30 nM
39 | CN1CCC(OC(c2cccc(OCCCn3cncn3)c2)c2nc3ccccc3s2)CC1 (stereo not shown) [Example 348, 2-{(1-methylpiperidin-4-yloxy)[3-(3-[1,2,4]triazol-1-yl-propoxy)phenyl]methyl}benzothiazole] | < 1000 nM

Same assay, conditions: human H4 receptor; evaluated in the GTPγ[35S] assay or in the [3H]histamine binding assay (not stated which per compound); Ki or IC50 class

Row | SMILES | Ki or IC50 activity class
40 | CN1CCC(OC(c2cccc(N3CCC(N)C3)c2)c2nc3ccccc3s2)CC1 (stereo not shown) [Example 429, 1-{3-[benzothiazol-2-yl(1-methylpiperidin-4-yloxy)methyl]phenyl}pyrrolidin-3-ylamine] | < 300 nM
